Reference: ChEMBL document CHEMBL1201862, “PubChem BioAssay data set” (2004)
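Five compound concentrations were applied to cells in 96-well plates for 48 hours; endpoints were derived by simple linear interpolation of the resulting dose-response curve. Abbreviation: GI50, concentration required for 50% inhibition of growth.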 Active and inactive are the calls of the source. Cut-off read from the data, not from the text of the source: active = GI50 up to about 1.1 µM and inactive = higher.

Experiments:
Assay in all cases: NCI-60 cell line screen, 48 h
SNB-19 = tested on: SNB-19
HOP-92 = tested on: HOP-92
A549 = tested on: A549
SNB-75 = tested on: SNB-75
M19-MEL = tested on: M19-MEL
SF-539 = tested on: SF-539
ACHN = tested on: ACHN
NCI-H460 = tested on: NCI-H460
OVCAR-4 = tested on: OVCAR-4
NCI-H226 = tested on: NCI-H226
DMS-273 = tested on: DMS-273
M14 = tested on: M14
COLO 205 = tested on: COLO 205
SK-MEL-5 = tested on: SK-MEL-5
UACC-257 = tested on: UACC-257
UO-31 = tested on: UO-31

Measured: GI50

O=S(=O)(CC1=NC2C=CC=CC2N=C1)NCc1ccccc1 (stereo not drawn)
inactive: SNB-19 > 100 µM | HOP-92 75.3 µM | A549 > 100 µM | SNB-75 > 100 µM | M19-MEL > 100 µM | SF-539 > 100 µM | ACHN > 100 µM | NCI-H460 > 100 µM | OVCAR-4 55.2 µM | NCI-H226 78.7 µM | DMS-273 > 100 µM | M14 > 100 µM | COLO 205 > 100 µM | SK-MEL-5 40 µM

CC(=O)C1(O)CC2(c3ccccc3)C(=O)C1(c1ccccc1)C(c1ccccc1)=C2c1ccccc1 (stereo not drawn)
inactive: SNB-19 > 100 µM | HOP-92 80.9 µM | A549 54.6 µM | SNB-75 38.7 µM | M19-MEL > 100 µM | SF-539 > 100 µM | NCI-H460 > 100 µM | OVCAR-4 13.5 µM | UACC-257 35.6 µM | NCI-H226 > 100 µM | DMS-273 44.3 µM | UO-31 58.5 µM | M14 > 100 µM | COLO 205 > 100 µM | SK-MEL-5 44 µM

COc1cc(C2C(Cl)C(=O)N2NC(=O)c2ccc(NC(C)=O)cc2)ccc1O (stereo not drawn)
inactive: SNB-19 > 100 µM | HOP-92 > 100 µM | A549 > 100 µM | M19-MEL > 100 µM | SF-539 > 100 µM | ACHN > 100 µM | NCI-H460 > 100 µM | OVCAR-4 > 100 µM | UACC-257 > 100 µM | NCI-H226 > 100 µM | DMS-273 > 100 µM | UO-31 > 100 µM | M14 > 100 µM | COLO 205 > 100 µM | SK-MEL-5 > 100 µM

O=S1(=O)OCCOS(=O)(=O)C1(Br)Cc1ccccc1
inactive: SNB-19 > 100 µM | HOP-92 > 100 µM | A549 > 100 µM | SNB-75 33 µM | M19-MEL > 100 µM | SF-539 > 100 µM | ACHN > 100 µM | NCI-H460 > 100 µM | OVCAR-4 > 100 µM | UACC-257 > 100 µM | NCI-H226 > 100 µM | DMS-273 > 100 µM | UO-31 > 100 µM | M14 > 100 µM | COLO 205 > 100 µM | SK-MEL-5 > 100 µM

CN1CCCCC(C(O)(c2ccccc2)c2ccccc2)C1=O (stereo not drawn)
inactive: SNB-19 > 100 µM | HOP-92 > 100 µM | A549 > 100 µM | SNB-75 > 100 µM | M19-MEL > 100 µM | SF-539 > 100 µM | ACHN > 100 µM | NCI-H460 80 µM | OVCAR-4 > 100 µM | UACC-257 > 100 µM | NCI-H226 > 100 µM | DMS-273 44.1 µM | UO-31 > 100 µM | M14 > 100 µM | COLO 205 56.2 µM | SK-MEL-5 > 100 µM

CC(C)N1CN(C(C(=O)N[C@@H]2C(=O)N3C2SC(C)(C)C3C(=O)O)c2ccc(O)cc2)CSC1=S (stereo partly drawn)
inactive: SNB-19 > 100 µM | HOP-92 > 100 µM | SNB-75 > 100 µM | M19-MEL > 100 µM | SF-539 > 100 µM | ACHN > 100 µM | NCI-H460 > 100 µM | OVCAR-4 > 100 µM | UACC-257 > 100 µM | DMS-273 > 100 µM | UO-31 > 100 µM | M14 > 100 µM | COLO 205 33.8 µM | SK-MEL-5 > 100 µM

CC(C)(C)C(=C[S+]([O-])/N=C/c1ccccc1)C(C)(C)C (stereo not drawn)
inactive: SNB-19 44.7 µM | HOP-92 19.7 µM | A549 33.4 µM | SNB-75 16.4 µM | M19-MEL 36.1 µM | SF-539 > 100 µM | ACHN 36.8 µM | NCI-H460 24.8 µM | OVCAR-4 21.4 µM | UACC-257 52 µM | NCI-H226 20.7 µM | DMS-273 32.3 µM | UO-31 27.2 µM | M14 40.2 µM | COLO 205 41.1 µM | SK-MEL-5 24.3 µM

c1cc2ccc1C1NCCCN1CCN1CCCNC1c1ccc(cc1)C1NCCCN1CCN1CCCNC21 (stereo not drawn)
inactive: SNB-19 > 100 µM | HOP-92 > 100 µM | A549 > 100 µM | SNB-75 > 100 µM | M19-MEL 95.7 µM | SF-539 > 100 µM | ACHN > 100 µM | NCI-H460 77.3 µM | OVCAR-4 > 100 µM | UACC-257 > 100 µM | DMS-273 > 100 µM | UO-31 > 100 µM | M14 99.8 µM | COLO 205 54.3 µM | SK-MEL-5 > 100 µM

C=C1C(=O)OC2C1CC[C@H](C)C13OC(=O)CC1[C@@]23C (stereo partly drawn)
inactive: SNB-19 > 100 µM | HOP-92 > 100 µM | A549 > 100 µM | SNB-75 > 100 µM | M19-MEL > 100 µM | SF-539 > 100 µM | ACHN > 100 µM | NCI-H460 > 100 µM | UACC-257 > 100 µM | NCI-H226 > 100 µM | DMS-273 > 100 µM | UO-31 > 100 µM | COLO 205 > 100 µM | SK-MEL-5 > 100 µM

CCOC(=O)c1c(-c2[nH]c(C(=O)OCc3ccccc3)c(C)c2C(=O)OCC)[nH]c(C(=O)OCc2ccccc2)c1C
inactive: HOP-92 55.2 µM | A549 > 100 µM | SNB-75 29 µM | M19-MEL > 100 µM | SF-539 48.4 µM | ACHN 58.2 µM | NCI-H460 > 100 µM | NCI-H226 > 100 µM | DMS-273 > 100 µM | UO-31 > 100 µM | M14 > 100 µM | COLO 205 > 100 µM | SK-MEL-5 > 100 µM

CC1=C(C(=O)Nc2ccccc2)C(c2cccc3ccccc23)C(C(=O)Nc2ccccc2)=C(C)N1
inactive: SNB-19 16.4 µM | HOP-92 24 µM | A549 28 µM | SNB-75 15.6 µM | M19-MEL 19 µM | SF-539 20.4 µM | ACHN 24.2 µM | OVCAR-4 > 10 µM | UACC-257 18.2 µM | NCI-H226 1.74 µM | DMS-273 19.1 µM | UO-31 21.6 µM | M14 17.7 µM | COLO 205 13.4 µM | SK-MEL-5 19.3 µM

CC1=NC2(C(=O)O)C3(C(=O)O)N=C(C)OC3(C(F)(F)F)C2(C(F)(F)F)O1 (stereo not drawn)
inactive: SNB-19 > 100 µM | HOP-92 > 100 µM | A549 > 100 µM | SNB-75 > 100 µM | M19-MEL > 100 µM | SF-539 > 100 µM | ACHN > 100 µM | NCI-H460 > 100 µM | OVCAR-4 > 100 µM | UACC-257 > 100 µM | NCI-H226 > 100 µM | DMS-273 > 100 µM | UO-31 > 100 µM | M14 > 100 µM | COLO 205 > 100 µM

CC1C2C=C(O)C(=O)C(C2=O)C1c1ccccc1 (stereo not drawn)
inactive: SNB-19 > 100 µM | HOP-92 > 100 µM | A549 > 100 µM | SNB-75 82.6 µM | M19-MEL > 100 µM | SF-539 > 100 µM | ACHN > 100 µM | OVCAR-4 > 100 µM | UACC-257 > 100 µM | NCI-H226 45.1 µM | DMS-273 > 100 µM | UO-31 > 100 µM | M14 > 100 µM | COLO 205 > 100 µM | SK-MEL-5 > 100 µM
